Laboratory results as given in ChEMBL document CHEMBL1137391, “Synthesis and evaluation of indenoisoquinoline topoisomerase I inhibitors substituted with nitrogen heterocycles” (2006).

Key:
Assay type in all cases: functional
OVCAR-3 = assay: Cytotoxicity against human OVCAR-3 cell line
SF-539 = assay: Cytotoxicity against human SF539 cell line
SN12C = assay: Cytotoxicity against human SN12C cell line
DU-145 = assay: Cytotoxicity against human DU145 cell line
UACC-62 = assay: Cytotoxicity against human UACC62 cell line
HCT-116 = assay: Cytotoxicity against human HCT116 cell line
HOP-62 = assay: Cytotoxicity against human HOP62 cell line
MDA-MB-435 = assay: Cytotoxicity against human MDA-MB-435 cell line

SMILES	GI50 (OVCAR-3) [nM]	GI50 (SF-539) [nM]	GI50 (SN12C) [nM]	GI50 (DU-145) [nM]	GI50 (UACC-62) [nM]	GI50 (HCT-116) [nM]	GI50 (HOP-62) [nM]	GI50 (MDA-MB-435) [nM]
O=C1c2ccccc2-c2c1c1ccccc1c(=O)n2CCCn1ccnc1	1660	2340	1660	1410	790	1410	2690	–
COc1cc2c3c(n(CCCN4CCSCC4)c(=O)c2cc1OC)-c1cc2c(cc1C3=O)OCO2	34700	18200	–	> 100000	37200	72400	26300	> 100000
COc1cc2c3c(n(CCCNCCN4CCOCC4)c(=O)c2cc1OC)-c1cc2c(cc1C3=O)OCO2	525	550	1480	603	162	< 5	< 5	1950
COc1cc2c3c(n(CCCN4CCN(CCO)CC4)c(=O)c2cc1OC)-c1cc2c(cc1C3=O)OCO2	15100	1440	> 100000	275	1230	2340	9770	> 100000
COc1cc2c3c(n(CCCN4CCCNCC4)c(=O)c2cc1OC)-c1cc2c(cc1C3=O)OCO2	5010	145	145	81	457	214	< 5	2630
COc1cc2c3c(n(CCCNC4=NCCS4)c(=O)c2cc1OC)-c1cc2c(cc1C3=O)OCO2	41	< 10	< 10	< 10	14	< 10	< 10	< 10
COc1cc2c3c(n(CCCN4CCN(C)CC4)c(=O)c2cc1OC)-c1cc2c(cc1C3=O)OCO2	15100	17800	11500	10700	15100	1480	18200	> 100000
COc1cc2c3c(n(CCCn4ccnc4)c(=O)c2cc1OC)-c1cc2c(cc1C3=O)OCO2	85	37	< 10	< 10	< 10	< 10	< 10	20
COc1cc2c3c(n(CCCN4CCC(N)CC4)c(=O)c2cc1OC)-c1cc2c(cc1C3=O)OCO2	832	100	257	182	1290	120	427	1740
COc1cc2c3c(n(CCCN4CCNCC4)c(=O)c2cc1OC)-c1cc2c(cc1C3=O)OCO2	2040	< 5	91	15	1200	575	< 5	4570
COc1cc2c3c(n(CCCn4cccn4)c(=O)c2cc1OC)-c1cc2c(cc1C3=O)OCO2	56200	398	316	363	269	1990	447	7080
COc1cc2c3c(n(CCCn4ccnc4)c(=O)c2cc1OC)-c1ccccc1C3=O	< 10	< 10	< 10	< 10	< 10	< 10	< 10	14
COc1cc2c3c(n(CCCN4CCCC(O)C4)c(=O)c2cc1OC)-c1cc2c(cc1C3=O)OCO2 (configuration not stated)	5750	< 5	126	< 5	5010	< 5	< 5	977
O=C1c2ccccc2-c2c1c1ccc([N+](=O)[O-])cc1c(=O)n2CCCn1ccnc1	864	16	15	17	12	274	190	2170
COc1cc2c3c(n(CCCn4cncn4)c(=O)c2cc1OC)-c1cc2c(cc1C3=O)OCO2	61700	288	85	85	< 10	1910	79	> 100000
COc1cc2c3c(n(C)c(=O)c2cc1OC)-c1cc2c(cc1C3=O)OCO2	–	–	68000	37000	4200	35000	1300	96000
COc1cc2c3c(n(CCCN4CCOCC4)c(=O)c2cc1OC)-c1cc2c(cc1C3=O)OCO2 [INDOTECAN]	74100	40	813	155	30	1150	1780	67600
